Measurements from the supplement of paper PMC6045584.
± gives the standard deviation of the averaged measurements.

Tests used:
SNX-5422 = compound: CC1(C)CC(=O)c2c(C(F)(F)F)nn(-c3ccc(C(N)=O)c(N[C@H]4CC[C@H](OC(=O)CN)CC4)c3)c2C1 [SNX-5422]; experiment: surviving fraction relative to DMSO-only wells; higher = less growth inhibition; conditions: exposure time: 5 days
Procedure, shortened: (§1)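 Tumour cell lines in log phase were plated in 384-well plates at 250–500 cells per well, then, after 24 hours, exposed continuously for five days to inhibitors at 0.5, 1, 5, 10, 50, 100, 500 and 1000 nM. Viability came from CellTiter-Glo luminescence, and surviving fraction is that signal normalised to the median of DMSO-only wells. Plates were read after 10 minutes at room temperature, and each line, screened three times, was kept only when replicate Pearson r was >0.7 and median Z' was >0.3.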

TIOGUANINE = compound: Nc1nc2[nH]cnc2c(=S)[nH]1 [TIOGUANINE]; experiment: as above; conditions: exposure time: 5 days
Procedure, shortened: as §1

Test System | surviving fraction (SNX-5422; 0.5 nM) | surviving fraction (SNX-5422; 1 nM) | surviving fraction (SNX-5422; 5 nM) | surviving fraction (SNX-5422; 10 nM) | surviving fraction (SNX-5422; 50 nM) | surviving fraction (SNX-5422; 100 nM) | surviving fraction (SNX-5422; 500 nM) | surviving fraction (SNX-5422; 1000 nM) | surviving fraction (TIOGUANINE; 0.5 nM) | surviving fraction (TIOGUANINE; 1 nM) | surviving fraction (TIOGUANINE; 5 nM) | surviving fraction (TIOGUANINE; 10 nM) | surviving fraction (TIOGUANINE; 50 nM) | surviving fraction (TIOGUANINE; 100 nM) | surviving fraction (TIOGUANINE; 500 nM) | surviving fraction (TIOGUANINE; 1000 nM)
SG28 HEADNECK | 1.05 ± 0.11 | 1.12 ± 0.019 | 1 ± 0.076 | 1 ± 0.071 | 0.598 ± 0.042 | 0.299 ± 0.023 | 0.117 ± 0.019 | 0.125 ± 0.015 | 1.07 ± 0.045 | 1.05 ± 0.14 | 1.01 ± 0.14 | 0.994 ± 0.076 | 1.06 ± 0.089 | 1.05 ± 0.12 | 1.02 ± 0.038 | 1.14 ± 0.082
SG31 HEADNECK | 1.03 ± 0.12 | 1.09 ± 0.22 | 1.05 ± 0.096 | 0.876 ± 0.14 | 0.61 ± 0.024 | 0.187 ± 0.029 | 0.0373 ± 0.0076 | 0.0403 ± 0.006 | 0.97 ± 0.023 | 1 ± 0.085 | 1 ± 0.16 | 1.01 ± 0.18 | 0.986 ± 0.073 | 0.871 ± 0.1 | 1.2 ± 0.25 | 0.928 ± 0.17
SG32 HEADNECK | 1.35 ± 0.39 | 1.17 ± 0.21 | 1.08 ± 0.18 | 1.29 ± 0.14 | 0.257 ± 0.035 | 0.14 ± 0.011 | 0.0353 ± 0.0084 | 0.0353 ± 0.004 | 0.916 ± 0.077 | 1.04 ± 0.044 | 1.18 ± 0.22 | 1.2 ± 0.074 | 1.2 ± 0.15 | 0.881 ± 0.05 | 0.962 ± 0.22 | 1.17 ± 0.057
SG43 HEADNECK | 0.971 ± 0.16 | 1.26 ± 0.33 | 0.911 ± 0.033 | 0.865 ± 0.13 | 0.205 ± 0.085 | 0.033 ± 0.004 | 0.0307 ± 0.019 | 0.037 ± 0.003 | 1 ± 0.073 | 0.986 ± 0.23 | 0.684 ± 0.14 | 0.988 ± 0.083 | 0.778 ± 0.18 | 0.895 ± 0.15 | 0.91 ± 0.1 | 1.11 ± 0.13
SIHA CERVIX | 1.11 ± 0.1 | 1.1 ± 0.096 | 1.21 ± 0.055 | 1.23 ± 0.095 | 0.423 ± 0.034 | 0.262 ± 0.002 | 0.2 ± 0.0087 | 0.188 ± 0.0084 | 0.848 ± 0.07 | 0.858 ± 0.097 | 0.994 ± 0.044 | 0.967 ± 0.084 | 0.97 ± 0.043 | 0.987 ± 0.078 | 0.817 ± 0.029 | 0.856 ± 0.029
SUM44 BREAST | 1.02 ± 0.035 | 0.987 ± 0.043 | 0.974 ± 0.013 | 0.867 ± 0.024 | 0.604 ± 0.015 | 0.589 ± 0.04 | 0.495 ± 0.041 | 0.471 ± 0.048 | 0.946 ± 0.03 | 0.992 ± 0.046 | 1.04 ± 0.035 | 1.04 ± 0.028 | 1.03 ± 0.011 | 1.09 ± 0.086 | 0.97 ± 0.091 | 1.055 ± 0.0085
SUM149 BREAST | 0.982 ± 0.046 | 0.986 ± 0.14 | 1.09 ± 0.1 | 0.951 ± 0.097 | 0.0727 ± 0.0076 | 0.082 ± 0.0095 | 0.0233 ± 0.0021 | 0.0287 ± 0.0015 | 1.06 ± 0.068 | 0.998 ± 0.076 | 1.11 ± 0.068 | 1.05 ± 0.058 | 0.984 ± 0.029 | 1.06 ± 0.082 | 1.01 ± 0.067 | 1.05 ± 0.058
SUM149.B1*.S BREAST | 1.06 ± 0.037 | 1.12 ± 0.032 | 1.09 ± 0.021 | 1.08 ± 0.037 | 0.385 ± 0.022 | 0.226 ± 0.017 | 0.0997 ± 0.0045 | 0.0978 ± 0.0067 | 1.02 ± 0.072 | 1.019 ± 0.0064 | 1.03 ± 0.016 | 1.03 ± 0.056 | 1.02 ± 0.033 | 1 ± 0.015 | 0.993 ± 0.022 | 0.922 ± 0.033
SUM159 BREAST | 1.11 ± 0.11 | 1.13 ± 0.098 | 1.16 ± 0.17 | 1.15 ± 0.17 | 0.6 ± 0.084 | 0.316 ± 0.015 | 0.064 ± 0.0036 | 0.0623 ± 0.0015 | 1.07 ± 0.14 | 1.02 ± 0.025 | 1.02 ± 0.041 | 1.03 ± 0.069 | 1.04 ± 0.075 | 0.97 ± 0.077 | 1.05 ± 0.084 | 1.008 ± 0.006
SYO1 SYNOVIAL | 1.03 ± 0.031 | 0.993 ± 0.089 | 1.02 ± 0.016 | 0.846 ± 0.059 | 0.122 ± 0.049 | 0.0776 ± 0.021 | 0.0327 ± 0.0032 | 0.0335 ± 0.0013 | 0.941 ± 0.043 | 0.925 ± 0.042 | 0.917 ± 0.075 | 0.896 ± 0.021 | 0.785 ± 0.029 | 0.645 ± 0.043 | 0.411 ± 0.022 | 0.354 ± 0.028
T47D BREAST | 1.08 ± 0.018 | 1.06 ± 0.018 | 1.08 ± 0.035 | 1.06 ± 0.019 | 0.492 ± 0.033 | 0.512 ± 0.016 | 0.31 ± 0.0074 | 0.288 ± 0.0079 | 1.03 ± 0.025 | 0.984 ± 0.038 | 0.964 ± 0.016 | 0.998 ± 0.029 | 1.08 ± 0.045 | 1.06 ± 0.072 | 1.03 ± 0.061 | 0.978 ± 0.011
U2OS BONE | 1.04 ± 0.019 | 1.06 ± 0.04 | 1.08 ± 0.015 | 1.06 ± 0.041 | 0.644 ± 0.018 | 0.257 ± 0.021 | 0.066 ± 0.0035 | 0.0757 ± 0.0023 | 1.03 ± 0.058 | 1.06 ± 0.043 | 1.077 ± 0.007 | 1.04 ± 0.018 | 1.08 ± 0.05 | 1.06 ± 0.048 | 0.939 ± 0.014 | 0.732 ± 0.042
VP229 BREAST | 1.286 ± 0.012 | 1.15 ± 0.17 | 1.12 ± 0.08 | 1.03 ± 0.16 | 0.612 ± 0.034 | 0.628 ± 0.1 | 0.0873 ± 0.019 | 0.088 ± 0.011 | 1.07 ± 0.089 | 1.06 ± 0.053 | 1.03 ± 0.031 | 1.04 ± 0.057 | 1.11 ± 0.14 | 1.1 ± 0.012 | 1.14 ± 0.17 | 1.08 ± 0.15
YAMATO SYNOVIAL | 1.2 ± 0.21 | 1.15 ± 0.13 | 1.23 ± 0.096 | 1.17 ± 0.086 | 0.971 ± 0.21 | 0.339 ± 0.031 | 0.318 ± 0.028 | 0.382 ± 0.031 | 1.31 ± 0.071 | 1.21 ± 0.046 | 1.32 ± 0.052 | 1.35 ± 0.11 | 1.36 ± 0.17 | 1.37 ± 0.06 | 1.24 ± 0.092 | 1.06 ± 0.066
ZR751 BREAST | 1.04 ± 0.12 | 1.45 ± 0.57 | 1.08 ± 0.11 | 1.34 ± 0.18 | 0.652 ± 0.071 | 0.513 ± 0.036 | 0.218 ± 0.024 | 0.217 ± 0.017 | 1.01 ± 0.07 | 0.969 ± 0.16 | 0.82 ± 0.16 | 0.897 ± 0.064 | 1.12 ± 0.13 | 1.02 ± 0.16 | 1.04 ± 0.013 | 1.07 ± 0.15
